Laboratory results from patent publication US8431533B2, “GLP-1 fusion peptides, their production and use” (Biocompatibles UK Ltd., priority 2005, dated 2013).
Like-named read-outs stand apart in the source and are kept apart here. Ends that are not written are not given here.

Columns and labels:
[1] = system: type II diabetic mice (C57BL/Ks-Lepr^db/db); experiment: In vivo bioactivity, blood glucose in type II diabetic mice; conditions: 5 μg peptide s.c. twice a day, day 2, 4, 7, 10, after overnight fast
Protocol: 11-week-old type II diabetic mice (C57BL/Ks-Lepr^db/db, Harlan) were treated with 5 μg peptide by subcutaneous injection twice a day at 9 a.m. and 5 p.m. (n=5 per group). Blood glucose was measured before (day 0) and after treatment with GLP^CM peptides (Day 2, 4, 7, 10) at 10 a.m. after an overnight fastening period. Data were presented in relation to blood glucose levels measured at day 0.

[2] = system: C57BL/KsJ@Rj-db (db/db) mice; experiment: Long-term treatment of db/db mice; type: in vivo
Protocol: Blood glucose was measured from a tail bleed after a 12-hour overnight fast 18 hours after s.c. injection of the test substances. […] The serum was analysed for insulin with the Insulin Mouse Ultrasensitive ELISA (Cat.#EIA-3440, DRG).

[3] = system: BALB/c mice; experiment: In vivo study, immunogenicity; conditions: 5 repeated injections, 70 μg peptide/dose, i.v., over 22 d
Protocol: The trial was done in BALB/c mice receiving 5 repeated injections (70 μg peptide/dose, i.v.) over 22 d (n=5).
Spleens of the treated and control mice were explanted, T-cells isolated and stimulated with increasing amounts of antigene. Proliferative recall response is measured.

[4] = system: diabetic C57BL/KsJ@Rj-db (db/db) mice; experiment: Dose-efficacy study in diabetic mice; type: in vivo
Protocol: A sixth group was treated with saline only. 7 animals were treated per group. Blood glucose was determined from tail bleeds directly before, 1 hour and 4 hours after injection. […] For every test substance a graph was prepared with the percentage difference of the blood glucose in relation to the start value for the different concentrations. […] Both models are sigmoidal fit models suitable for dose response evaluation.

[5] = target: T1, DPPIV (Homo sapiens, UniProt P27487); experiment: In vitro plasma stability of GLP1CM peptides (kinetic test method); conditions: 10% human plasma; for remaining at 9 h, 1 μM: human, pH 7.8; for DT80: time needed to degrade active GLP-1 to 80% of the 0 h value, 1 μM peptide
Target sequence in this assay (P27487 39-766 limits assumed): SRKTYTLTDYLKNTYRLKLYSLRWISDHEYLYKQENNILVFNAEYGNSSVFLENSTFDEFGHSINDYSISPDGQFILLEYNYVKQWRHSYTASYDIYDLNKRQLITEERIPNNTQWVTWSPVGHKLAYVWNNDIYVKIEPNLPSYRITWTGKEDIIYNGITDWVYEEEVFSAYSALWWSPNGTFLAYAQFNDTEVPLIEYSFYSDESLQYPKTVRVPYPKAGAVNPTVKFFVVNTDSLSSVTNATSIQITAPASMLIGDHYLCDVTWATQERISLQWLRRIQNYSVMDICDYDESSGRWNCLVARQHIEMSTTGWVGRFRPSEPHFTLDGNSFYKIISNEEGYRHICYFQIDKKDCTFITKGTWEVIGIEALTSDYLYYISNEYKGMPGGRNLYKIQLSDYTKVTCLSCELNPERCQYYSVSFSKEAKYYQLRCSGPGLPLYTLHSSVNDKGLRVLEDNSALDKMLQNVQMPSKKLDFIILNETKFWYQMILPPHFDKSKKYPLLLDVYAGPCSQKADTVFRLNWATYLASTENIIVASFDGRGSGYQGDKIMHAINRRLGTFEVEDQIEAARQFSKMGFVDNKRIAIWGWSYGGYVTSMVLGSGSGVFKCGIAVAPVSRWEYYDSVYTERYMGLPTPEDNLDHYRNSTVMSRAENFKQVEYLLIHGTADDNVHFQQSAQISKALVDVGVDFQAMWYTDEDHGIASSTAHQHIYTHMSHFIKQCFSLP
Excerpt: (§1) Results are from triplicates in at least two independent experiments.

[6] = target: T1, DPPIV; experiment: In vitro plasma stability of GLP-1 peptides secreted from human cells; type: in vitro ADME; parameters: human lymphocyte enriched plasma containing dipeptidylpeptidase activity; from tissue; host or cells: human lymphocyte enriched plasma; conditions: human lymphocyte enriched plasma, 37° C., 3 or 4 hours
Excerpt: HEK293 and hTERT-MSC cells were transiently transfected with constructs, encoding the heterologous stromelysin signal sequence, which is linked to GLP-1 variants encoding the following peptides: […]
Target sequence in this assay (P27487 whole entry): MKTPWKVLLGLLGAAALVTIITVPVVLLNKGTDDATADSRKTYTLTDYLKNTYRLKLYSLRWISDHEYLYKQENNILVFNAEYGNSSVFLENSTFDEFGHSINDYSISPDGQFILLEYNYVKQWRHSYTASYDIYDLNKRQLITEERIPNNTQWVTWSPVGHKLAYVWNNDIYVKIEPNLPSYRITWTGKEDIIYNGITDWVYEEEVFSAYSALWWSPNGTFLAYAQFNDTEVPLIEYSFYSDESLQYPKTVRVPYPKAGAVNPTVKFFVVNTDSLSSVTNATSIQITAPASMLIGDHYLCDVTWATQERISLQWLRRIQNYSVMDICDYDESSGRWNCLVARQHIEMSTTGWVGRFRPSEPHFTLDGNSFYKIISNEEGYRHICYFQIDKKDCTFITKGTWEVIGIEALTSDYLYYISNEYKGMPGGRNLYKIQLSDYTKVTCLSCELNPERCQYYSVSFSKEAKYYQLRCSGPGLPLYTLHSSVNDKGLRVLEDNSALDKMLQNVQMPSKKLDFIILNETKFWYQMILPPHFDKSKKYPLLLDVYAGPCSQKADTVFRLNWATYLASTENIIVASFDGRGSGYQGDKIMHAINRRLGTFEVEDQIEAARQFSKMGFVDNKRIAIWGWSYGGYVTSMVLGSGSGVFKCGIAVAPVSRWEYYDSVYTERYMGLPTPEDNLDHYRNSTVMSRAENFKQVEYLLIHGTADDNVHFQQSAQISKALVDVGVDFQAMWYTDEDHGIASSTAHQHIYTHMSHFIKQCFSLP

[7] = In vitro human plasma stability of GLP-1CM peptides; conditions: 20 ng/ml, 37° C., 3 hours, GLP-1 (Active) ELISA
Excerpt: Dipeptidylpeptidase activity of the plasma was inhibited by an DPP-IV inhibitor (#DPP4, Biotrend).

[8] = target: T1, DPPIV; experiment: in vitro; conditions: plasma, pH 7.8
Target sequence in this assay (P27487 39-766 limits assumed): as the sequence (P27487 39-766 limits assumed) above
Excerpt: as §1

[9] = target: T1, DPPIV
Target sequence in this assay (P27487 39-766 limits assumed): as above
Excerpt: as §1

With GLP-1(7-37)-IP2-RR-GLP1(7-37) [CM1] as the molecule, how does the “anti-hyperglycemia effect (blood glucose in relation to day 0)” value [1] read?
Its value is “Best results”.

And the “anti-hyperglycemia effect (blood glucose in relation to day 0)” value ([1]; listed as SEQ ID No.:6)?
Its value is “anti-hyperglycemia effect”.

What about the “fasted blood glucose level” value ([2]; 12-hour overnight fast, 18 h after peptide injection) of the same molecule?
The value was “reduced”.

What about the “non fasted blood glucose level compared to control” value ([2]; 1 h after s.c. peptide injection, 24 nmol/kg) of the same molecule?
Its value is 55%.

And the food consumption ([2]; weekly, 122 day treatment period, compared to the control, p<0.001)?
The food consumption was “significantly lower”.

And the toxicity [3]?
The toxicity was “no toxicity”.

And the “fall in plasma glucose @1 h” value ([4]; 1 hour after single s.c. injection of 1.1-3.0 nmol peptide, versus control)?
The value was 50% ± 14%@1 h.

What about the “fall in plasma glucose @4 h” value ([4]; 4 hours after single s.c. injection of 1.1-3.0 nmol peptide, versus control) of the same molecule?
The value was 0%@4 h.

What about the “ED50 (plasma glucose)” value ([4]; single s.c. dose, percentage decrease of blood glucose at 1 h, sigmoidal fit) of the same molecule?
Its value is 0.61 μg/mouse.

With “HAEGTFTSDVSSYLEGQAAKEFIAWLVKGRGAADAAAAVAIAAALG [CM3-ANA04]” as the molecule, how does the remaining at 9 h, 1 μM [5] read?
Its remaining at 9 h, 1 μM is 65%.

What about the DT80 ([5]; 37° C.) of the same molecule?
Its DT80 is 4.7 h.

For “HAEGTFTSDVSSYLEGQAAKEFIAWLVKGRGRRDAAAAVAIAEELG [CM3-ANA03]”, which “in vitro plasma stability, comparison” value ([5]; 37° C.) is on record?
The value was “strongly reduced stability compared to CM3”.

What about the remaining at 9 h, 1 μM [5] of the same molecule?
The remaining at 9 h, 1 μM was 30%.

And the DT80 ([5]; 37° C.)?
The DT80 was 1.6 h.

With “GLP-1(7-37) [compound 1, reference compound]” as the molecule, how does the “resistance to DPP-IV degradation” value [6] read?
Its value is “inactivated by DPP-IV in a similar way to synthetic GLP-1”.

Which DT80 ([5]; 37° C.) does the source give for “HAEGTFTSDVSSYLEGQAAKEFIAWLVKGRGRRDFPEEVAIAEELG [CM3]” here?
The DT80 was 4.4 h.

And the “stability in human plasma in vitro” value [7]?
The value was “significantly stabilized”.

For “HAEGTFTSDVSSYLEGQAAKEFIAWLVKGRGRRDFAEEVAIAEELG [CM3-ANA02]”, which remaining at 9 h, 1 μM [5] is on record?
The remaining at 9 h, 1 μM was 65%.

What about the DT80 ([5]; 37° C.) of the same molecule?
The DT80 was 4.5 h.

With `CC[C@H](C)[C@H](NC(=O)[C@H](Cc1ccccc1)NC(=O)[C@H](CCC(=O)O)NC(=O)[C@H](CCCCN)NC(=O)[C@H](C)NC(=O)[C@H](C)NC(=O)[C@H](CCC(N)=O)NC(=O)CNC(=O)[C@H](CCC(=O)O)NC(=O)[C@H](CC(C)C)NC(=O)[C@H](Cc1ccc(O)cc1)NC(=O)[C@H](CO)NC(=O)[C@H](CO)NC(=O)[C@@H](NC(=O)[C@H](CC(=O)O)NC(=O)[C@H](CO)NC(=O)[C@@H](NC(=O)[C@H](Cc1ccccc1)NC(=O)[C@@H](NC(=O)CNC(=O)[C@H](CCC(=O)O)NC(=O)[C@H](C)NC(=O)[C@@H](N)Cc1c[nH]cn1)[C@@H](C)O)[C@@H](C)O)C(C)C)C(=O)N[C@@H](C)C(=O)N[C@@H](Cc1c[nH]c2ccccc12)C(=O)N[C@@H](CC(C)C)C(=O)N[C@H](C(=O)N[C@@H](CCCCN)C(=O)NCC(=O)N[C@@H](CCCNC(=N)N)C(=O)NCC(=O)N[C@@H](CCCNC(=N)N)C(=O)N[C@@H](CCCNC(=N)N)C(=O)N[C@@H](CC(=O)O)C(=O)N[C@@H](Cc1ccccc1)C(=O)N1CCC[C@H]1C(=O)O)C(C)C` [CM3-ANA06, reference compound] as the molecule, how does the remaining at 9 h, 1 μM [5] read?
The remaining at 9 h, 1 μM was 11%.

What about the DT80 ([5]; 37° C.) of the same molecule?
The DT80 was 0.9 h.

Which “resistance to DPP-IV degradation” value [6] does the source give for GLP1(7-37)-IP2-GLP1(7-37) [compound 3] here?
Its value is “nearly fully stabilised to DPP-IV degradation in vitro”.

Which remaining at 9 h, 1 μM [8] does the source give for “HAEGTFTSDVSSYLEGQAAKEFIAWLVKGRGRRDFPEEVAIAEELGRRHAC [CM3-ANA09]” here?
Its remaining at 9 h, 1 μM is 60%.

What about the DT80 [9] of the same molecule?
The DT80 was 4.2 h.

For “HAEGTFTSDVSSYLEGQAAKEFIAWLVKGRGAADFPEEVAIAEELG [CM3-ANA01]”, which DT80 [9] is on record?
Its DT80 is 12.5 h.

What about the “in vitro plasma stability, comparison” value [9] of the same molecule?
Its value is “higher plasma stability than CM3”.

Which results are given for `CC[C@H](C)[C@H](NC(=O)[C@H](Cc1ccccc1)NC(=O)[C@H](CCC(=O)O)NC(=O)[C@H](CCCCN)NC(=O)[C@H](C)NC(=O)[C@H](C)NC(=O)[C@H](CCC(N)=O)NC(=O)CNC(=O)[C@H](CCC(=O)O)NC(=O)[C@H](CC(C)C)NC(=O)[C@H](Cc1ccc(O)cc1)NC(=O)[C@H](CO)NC(=O)[C@H](CO)NC(=O)[C@@H](NC(=O)[C@H](CC(=O)O)NC(=O)[C@H](CO)NC(=O)[C@@H](NC(=O)[C@H](Cc1ccccc1)NC(=O)[C@@H](NC(=O)CNC(=O)[C@H](CCC(=O)O)NC(=O)[C@H](C)NC(=O)[C@@H](N)Cc1c[nH]cn1)[C@@H](C)O)[C@@H](C)O)C(C)C)C(=O)N[C@@H](C)C(=O)N[C@@H](Cc1c[nH]c2ccccc12)C(=O)N[C@@H](CC(C)C)C(=O)N[C@H](C(=O)N[C@@H](CCCCN)C(=O)NCC(=O)N[C@@H](CCCNC(=N)N)C(=O)NCC(=O)N[C@@H](CCCNC(=N)N)C(=O)N[C@@H](CCCNC(=N)N)C(=O)N[C@@H](CC(=O)O)C(=O)N[C@@H](Cc1ccccc1)C(=O)N1CCC[C@H]1C(=O)N[C@@H](CCC(=O)O)C(=O)N[C@@H](CCC(=O)O)C(=O)N[C@H](C(=O)N[C@@H](C)C(=O)O)C(C)C)C(C)C` [CM3-ANA07]?
remaining at 9 h, 1 μM [8]: 37%; DT80 [9]: 2.0 h

B1: GLP-1(7-37)-IP2-RR-GLP2 (peptide)
chain: HAEGTFTSDVSSYLEGQAAKEFIAWLVKGRGRRDFPEEVAIAEELGRRHADGSFSDEMSTILDNLATRDFINWLIQTKITDKK
Which “anti-hyperglycemia effect (blood glucose in relation to day 0)” value [1] does the source give for B1 here?
Its value is “anti-hyperglycemia effect”.

What about the “stability in human plasma in vitro” value [7] of the same molecule?
The value was “significantly stabilized”.
